The nature of this series: recombinant barcode read abundance after kanamycin selection (control-corrected) (log10(CPM+1)); higher = more efficient recombination; sequences stand for … in AGTGCAGAGAAAATCGGCCAGTTTTCTCTGCCTGCAGTCCGCATGCCGT…AGATTTATGCAGCGGACTGCCTTTCTCCCAAAGTGATAAACCGGACAGTATCATGGACCGGTTTTCCCGGTAATCCGTATTTGCAAGGTTGGTTTCACT; site = the 11-nt target. Put shortly:
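Duplicate cultures were plated either on chloramphenicol/ampicillin LB agar, serving as control, or on chloramphenicol/ampicillin/kanamycin with 0.1 mM IPTG. These came from a pooled E. coli library co-electroporated with a donor plasmid, each member pairing a target with an IS621 bridge RNA target-binding loop. Recombination efficiency equals averaged, control-corrected counts per million of recombinant-junction barcodes. It is listed as log10(CPM+1).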

The source of these data is the supplement of paper PMC11208160.
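Note: IS621 recombinase and bridge RNA in Escherichia coli cells.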

“ATTAGGACTTGGGTTCTAACCTGTTGCTG (site ATTAGGACTCT)”: the “recombinant barcode read abundance (log10)” value stood at 1.56.
The value for “ATTCAGACTTGGGTTCTAACCTGTTGCGG (site ATCCAGGCTCC)” was 0.113; that for “ATTCAGACTTGGGTTCTAACCTGTTGCGG (site ATTCAGACTCC)” was 2.33.
The result for “ATTCCATCTTGGGTTCTAACCTGTTGCCT (site ATACCATCTAG)” reads 0.57.
The result for “ATTCCATCTTGGGTTCTAACCTGTTGCCT (site ATCCCATCTAG)” reads 0.281; that for “ATTCCATCTTGGGTTCTAACCTGTTGCCT (site ATGCCATCTAG)”, 0.12; that for “ATTCCATCTTGGGTTCTAACCTGTTGCCT (site ATTCCATCTAG)”, 0.538.
For the sequence “ATTGCTACTTGGGTTCTAACCTGTTGCCA (site ATTGCTACTTG)”, the “recombinant barcode read abundance (log10)” value was 0.122.
Regarding “ATTGCTACTTGGGTTCTAACCTGTTGCCA (site GAACAGCCTAC)”, the “recombinant barcode read abundance (log10)” value is 0.143.
For the sequence “ATTGGCTCTTGGGTTCTAACCTGTTGCCT (site ATTGGATCTAG)”, the “recombinant barcode read abundance (log10)” value is 0.339.
The result for “ATTGGCTCTTGGGTTCTAACCTGTTGCCT (site ATTGGCTCTAG)” reads 0.684.
In the case of “ATTGGCTCTTGGGTTCTAACCTGTTGCCT (site ATTGGGTCTAG)”, the “recombinant barcode read abundance (log10)” value worked out at 0.0639.
The value for “ATTGGCTCTTGGGTTCTAACCTGTTGCCT (site ATTGGTTCTAG)” was 0.0735; that for “ATTGGTCCTTGGGTTCTAACCTGTTGCAT (site ATTGCTCCTAG)” was 0.364; that for “ATTGGTCCTTGGGTTCTAACCTGTTGCAT (site ATTGGTCCTAT)” was 1.92.
The result for “ATTTCGACTTGGGTTCTAACCTGTTGCGG (site ATTTCGACTCC)” reads 0.713.
“ATTTCGACTTGGGTTCTAACCTGTTGCGG (site GCAGGTGCTAA)”: the “recombinant barcode read abundance (log10)” value stood at 0.021.
The result for “ATTTCTACTTGGGTTCTAACCTGTTGCGA (site ATTTCTACTTC)” reads 0.194; that for “ATTTCTACTTGGGTTCTAACCTGTTGCGA (site GTTTCTACTTA)”, 0.102; that for “ATTTGGACTTGGGTTCTAACCTGTTGCCT (site ATTTGAACTAG)”, 0.173.
“ATTTGGACTTGGGTTCTAACCTGTTGCCT (site ATTTGCACTAG)”: the “recombinant barcode read abundance (log10)” value was determined as 0.0773.
The value for “ATTTGGACTTGGGTTCTAACCTGTTGCCT (site ATTTGGACTAG)” was 0.111; that for “ATTTGGACTTGGGTTCTAACCTGTTGCCT (site ATTTGTACTAG)” was 0.0943.
The value for “CAAAAGGCTTGGGTTCTAACCTGTTGCCT (site ATCGTACCTTA)” was 0.469; that for “CAAAAGGCTTGGGTTCTAACCTGTTGCCT (site CAAAAGGCTAG)” was 0.0565.
The result for “CAAACAACTTGGGTTCTAACCTGTTGCCT (site CAAACAACTAG)” reads 0.235; that for “CAAACAACTTGGGTTCTAACCTGTTGCCT (site CAAACACCTAG)”, 0.188.
As to “CAAACAACTTGGGTTCTAACCTGTTGCCT (site CAAACAGCTAG)”, the “recombinant barcode read abundance (log10)” value was found to be 0.101.
The result for “CAAACAACTTGGGTTCTAACCTGTTGCCT (site CAAACATCTAG)” reads 0.133; that for “CAAACTACTTGGGTTCTAACCTGTTGCTA (site CAAACTACTGT)”, 0.011.
The result for “CAAACTACTTGGGTTCTAACCTGTTGCTA (site CAAACTACTTA)” reads 0.386.
As to “CAAACTCCTTGGGTTCTAACCTGTTGCAT (site CAAACTCCTAA)”, the “recombinant barcode read abundance (log10)” value was 0.116.
The value for “CAAACTCCTTGGGTTCTAACCTGTTGCAT (site CAAACTCCTAC)” was 0.0268; that for “CAAACTCCTTGGGTTCTAACCTGTTGCAT (site CAAACTCCTAG)” was 0.0257; that for “CAAACTCCTTGGGTTCTAACCTGTTGCAT (site CAAACTCCTAT)” was 0.713.
The result for “CAAACTCCTTGGGTTCTAACCTGTTGCCT (site CAAACTCCTAA)” reads 0.137.
The value for “CAAACTCCTTGGGTTCTAACCTGTTGCCT (site CAAACTCCTAC)” was 0.0217; that for “CAAACTCCTTGGGTTCTAACCTGTTGCCT (site CAAACTCCTAG)” was 0.238.
“CAAACTCCTTGGGTTCTAACCTGTTGCCT (site CAAACTCCTAT)”: the “recombinant barcode read abundance (log10)” value stood at 0.067.
As for “CAAACTCCTTGGGTTCTAACCTGTTGCTT (site CAAACTCCTAA)”, the “recombinant barcode read abundance (log10)” value was 0.191.
The value for “CAAACTCCTTGGGTTCTAACCTGTTGCTT (site CAAACTCCTAC)” was 0.0428.
The value for “CAAACTCCTTGGGTTCTAACCTGTTGCTT (site CAAACTCCTAG)” was 0.221.
In the case of “CAAACTCCTTGGGTTCTAACCTGTTGCTT (site CAAACTCCTAT)”, the “recombinant barcode read abundance (log10)” value was found to be 0.0809.
The value for “CAAAGACCTTGGGTTCTAACCTGTTGCGG (site AAAATACCTCC)” was 0.14; that for “CAAAGACCTTGGGTTCTAACCTGTTGCGG (site CAAAGACCTCC)” was 2.06.
The result for “CAAAGATCTTGGGTTCTAACCTGTTGCTT (site CAAAGATCTAA)” reads 1.03; that for “CAAAGATCTTGGGTTCTAACCTGTTGCTT (site CACAGATCTAA)”, 0.046.
The result for “CAAAGATCTTGGGTTCTAACCTGTTGCTT (site CAGAGATCTAA)” reads 0.0421; that for “CAAAGATCTTGGGTTCTAACCTGTTGCTT (site CATAGATCTAA)”, 0.108; that for “CAAAGGCCTTGGGTTCTAACCTGTTGCCT (site CAAAGGCCTAG)”, 0.173.
On to “CAAAGGCCTTGGGTTCTAACCTGTTGCCT (site CAACGGCCTAG)”, for which the “recombinant barcode read abundance (log10)” value turned out to be 0.0335.
The result for “CAAAGGCCTTGGGTTCTAACCTGTTGCCT (site CAAGGGCCTAG)” reads 0.228; that for “CAAAGGCCTTGGGTTCTAACCTGTTGCCT (site CAATGGCCTAG)”, 0.157; that for “CAAAGGTCTTGGGTTCTAACCTGTTGCTA (site CAAAGGTCTTA)”, 1.39.
For “CAAAGGTCTTGGGTTCTAACCTGTTGCTA (site TAAAGGCCTTA)”, the “recombinant barcode read abundance (log10)” value was 0.0182.
The result for “CAAAGTGCTTGGGTTCTAACCTGTTGCCT (site CAAAGTGCTAG)” reads 0.517; that for “CAAAGTGCTTGGGTTCTAACCTGTTGCCT (site GAAAGTGCTAG)”, 0.205; that for “CAAATGTCTTGGGTTCTAACCTGTTGCCT (site AAAATGCCTAG)”, 0.299.
The value for “CAAATGTCTTGGGTTCTAACCTGTTGCCT (site CAAATGTCTAG)” was 1.1; that for “CAACACCCTTGGGTTCTAACCTGTTGCAT (site CAACACCCTAT)” was 2.33.
The result for “CAACACCCTTGGGTTCTAACCTGTTGCAT (site GTTTCAACTTG)” reads 0.157.
In the case of “CAACCACCTTGGGTTCTAACCTGTTGCTT (site CAAACACCTAA)”, the “recombinant barcode read abundance (log10)” value is 0.142.
The value for “CAACCACCTTGGGTTCTAACCTGTTGCTT (site CAACCACCTAA)” was 1.41; that for “CAACCACCTTGGGTTCTAACCTGTTGCTT (site CAAGCACCTAA)” was 0.0953.
The value for “CAACCACCTTGGGTTCTAACCTGTTGCTT (site CAATCACCTAA)” was 0.159; that for “CAAGTACCTTGGGTTCTAACCTGTTGCCT (site AAAGTACCTAG)” was 0.343.
The result for “CAAGTACCTTGGGTTCTAACCTGTTGCCT (site CAAGTACCTAG)” reads 0.688.
Turning to “CAAGTACCTTGGGTTCTAACCTGTTGCCT (site GAAGTACCTAG)”, the “recombinant barcode read abundance (log10)” value worked out at 0.185.
The value for “CAAGTACCTTGGGTTCTAACCTGTTGCCT (site TAAGTACCTAG)” was 0.22; that for “CAAGTTGCTTGGGTTCTAACCTGTTGCCT (site CAAGTAGCTAG)” was 0.14.
The value for “CAAGTTGCTTGGGTTCTAACCTGTTGCCT (site CAAGTCGCTAG)” was 0.305; that for “CAAGTTGCTTGGGTTCTAACCTGTTGCCT (site CAAGTGGCTAG)” was 0.227.
The result for “CAAGTTGCTTGGGTTCTAACCTGTTGCCT (site CAAGTTGCTAG)” reads 1.43; that for “CAATGGGCTTGGGTTCTAACCTGTTGCCG (site CAATGGGCTCG)”, 0.961.
In the case of “CAATGGGCTTGGGTTCTAACCTGTTGCCG (site CGATGGACTCG)”, the “recombinant barcode read abundance (log10)” value amounted to 0.179.
The value for “CAATGGTCTTGGGTTCTAACCTGTTGCCT (site CAATGGTCTAA)” was 0.376.
In the case of “CAATGGTCTTGGGTTCTAACCTGTTGCCT (site CAATGGTCTAC)”, the “recombinant barcode read abundance (log10)” value was 0.0107.
